Measurements published in ChEMBL document CHEMBL2021844, “The central valine concept provides an entry in a new class of non peptide inhibitors of the p53-MDM2 interaction” (Bioorg Med Chem Lett, 2012).

Key:
[1] = target: Tumour suppressor p53/oncoprotein Mdm2 (Homo sapiens, UniProt Q00987); experiment: Inhibition of p53 (18 to 26)-MDM2 (2 to 188) interaction using fluorescent dye Cy5 by TR-FRET assay; type: protein assay
[2] = target: T1, Protein Mdm4 (Homo sapiens, UniProt O15151); experiment: Inhibition of p53 derived peptide binding to MDM4 using fluorescent dye Cy5 by TR-FRET assay
T1 sequence (O15151 whole entry): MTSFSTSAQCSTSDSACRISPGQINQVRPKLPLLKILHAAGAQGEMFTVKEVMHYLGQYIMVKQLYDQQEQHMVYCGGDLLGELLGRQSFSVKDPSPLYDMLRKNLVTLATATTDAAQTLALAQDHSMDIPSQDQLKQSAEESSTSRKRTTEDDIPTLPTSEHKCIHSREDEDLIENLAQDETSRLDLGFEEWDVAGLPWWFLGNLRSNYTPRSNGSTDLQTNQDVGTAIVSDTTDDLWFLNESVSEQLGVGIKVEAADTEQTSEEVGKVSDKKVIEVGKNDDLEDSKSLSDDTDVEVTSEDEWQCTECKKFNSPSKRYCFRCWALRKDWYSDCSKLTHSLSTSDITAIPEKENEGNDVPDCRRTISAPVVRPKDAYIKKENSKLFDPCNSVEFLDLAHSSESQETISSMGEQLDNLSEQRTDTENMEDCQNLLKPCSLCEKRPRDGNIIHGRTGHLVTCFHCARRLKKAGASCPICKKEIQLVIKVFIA

[3] = system: SJSA-1; experiment: Antiproliferative activity against human SJSA1 cells expressing p53; type: functional, cell-based
[4] = system: SJSA-1; experiment: Ratio of IC50 for human SJSA1 cells expressing p53 to IC50 for human p53 deficient SAOS2 cells; type: functional

Sequence of Tumour suppressor p53/oncoprotein Mdm2 (P04637 whole entry): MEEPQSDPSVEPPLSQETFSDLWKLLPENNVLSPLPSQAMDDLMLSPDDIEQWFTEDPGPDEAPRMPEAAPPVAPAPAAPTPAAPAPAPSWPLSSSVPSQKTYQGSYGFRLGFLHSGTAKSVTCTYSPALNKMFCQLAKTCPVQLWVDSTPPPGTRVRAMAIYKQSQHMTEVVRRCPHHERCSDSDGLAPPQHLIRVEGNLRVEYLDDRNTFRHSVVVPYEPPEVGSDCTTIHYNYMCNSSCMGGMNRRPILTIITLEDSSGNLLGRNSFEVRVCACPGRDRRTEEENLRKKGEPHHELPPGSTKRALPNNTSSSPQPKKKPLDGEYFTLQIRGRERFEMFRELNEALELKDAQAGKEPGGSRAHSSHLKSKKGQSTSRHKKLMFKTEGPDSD
Sequence of Tumour suppressor p53/oncoprotein Mdm2 (Q00987 whole entry): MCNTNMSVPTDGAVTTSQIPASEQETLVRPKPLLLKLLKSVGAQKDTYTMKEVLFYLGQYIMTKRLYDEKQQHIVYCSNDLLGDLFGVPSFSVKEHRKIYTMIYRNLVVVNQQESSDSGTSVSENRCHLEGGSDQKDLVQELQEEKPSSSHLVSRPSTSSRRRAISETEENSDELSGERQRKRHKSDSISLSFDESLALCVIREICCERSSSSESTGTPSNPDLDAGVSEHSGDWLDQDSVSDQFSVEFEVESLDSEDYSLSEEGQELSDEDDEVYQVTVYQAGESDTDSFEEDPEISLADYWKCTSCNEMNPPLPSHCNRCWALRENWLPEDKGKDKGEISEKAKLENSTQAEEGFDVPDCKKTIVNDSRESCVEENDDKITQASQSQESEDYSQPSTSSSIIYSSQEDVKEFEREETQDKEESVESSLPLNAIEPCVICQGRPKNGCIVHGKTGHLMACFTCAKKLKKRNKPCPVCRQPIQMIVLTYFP

Structure (SMILES)	IC50 [1] [µM]	IC50 [2] [µM]	IC50 [3] [µM]	Ratio IC50 [4]
COc1ccc(Cn2c(C)nc(Cc3ccc(N)cc3)c2Cc2ccc(Cl)cc2)cc1	3.4	70	–	–
CC(C)CCn1cnc(-c2ccccc2)c1-c1c[nH]c2cc(Cl)ccc12	0.9	18	–	–
Clc1ccc(Cn2cnc(-c3ccccc3)c2-c2c[nH]c3cc(Cl)ccc23)cc1	0.2	22	–	–
O=C(NCCN1CCOCC1)c1[nH]c2cc(Cl)ccc2c1-c1c(-c2ccccc2)ncn1Cc1ccc(Cl)cc1	–	19	7.3	3
